Results on 1 compound are retold here after the NIST ThermoML archive (doi:10.1016/j.jct.2016.03.027).

± gives the expanded uncertainty stated by the source.

The mass density is mass per unit of volume.

The data set in a line: wn = mass fraction of the nth substance listed. The settings on record: 298.15 K, 100 kPa, Liquid, Vibrating tube method.

As to `O=C1OCCO1` [ethylene carbonate] + O, the mass density is, setting by setting: (w1 = 0.1) 1026.64 ± 1.2 kg/m3; (w1 = 0.2) 1056.71 ± 1.2 kg/m3; (w1 = 0.3) 1087.25 ± 1.2 kg/m3; (w1 = 0.4) 1118.6 ± 1.2 kg/m3.
